Target: T1, Nav1.7 (or SCN9A) channel; HEK cells stably transfected with hSCN9A (Homo sapiens, UniProt Q15858)
T1 construct: expressed in transfected cells
Assay: Nav1.7 block, PatchXpress 7000 automated whole-cell voltage clamp, estimated IC50 (EIC50)
Type: cell-based
Conditions: estimated IC50, PatchXpress platform

[1] = hSCN9A HEK cells, Examples 283-814
[2] = hSCN9A HEK cells, Examples 815-1040
[3] = hSCN9A HEK cells held at V1/2 of inactivation

T1 sequence (Q15858 whole entry): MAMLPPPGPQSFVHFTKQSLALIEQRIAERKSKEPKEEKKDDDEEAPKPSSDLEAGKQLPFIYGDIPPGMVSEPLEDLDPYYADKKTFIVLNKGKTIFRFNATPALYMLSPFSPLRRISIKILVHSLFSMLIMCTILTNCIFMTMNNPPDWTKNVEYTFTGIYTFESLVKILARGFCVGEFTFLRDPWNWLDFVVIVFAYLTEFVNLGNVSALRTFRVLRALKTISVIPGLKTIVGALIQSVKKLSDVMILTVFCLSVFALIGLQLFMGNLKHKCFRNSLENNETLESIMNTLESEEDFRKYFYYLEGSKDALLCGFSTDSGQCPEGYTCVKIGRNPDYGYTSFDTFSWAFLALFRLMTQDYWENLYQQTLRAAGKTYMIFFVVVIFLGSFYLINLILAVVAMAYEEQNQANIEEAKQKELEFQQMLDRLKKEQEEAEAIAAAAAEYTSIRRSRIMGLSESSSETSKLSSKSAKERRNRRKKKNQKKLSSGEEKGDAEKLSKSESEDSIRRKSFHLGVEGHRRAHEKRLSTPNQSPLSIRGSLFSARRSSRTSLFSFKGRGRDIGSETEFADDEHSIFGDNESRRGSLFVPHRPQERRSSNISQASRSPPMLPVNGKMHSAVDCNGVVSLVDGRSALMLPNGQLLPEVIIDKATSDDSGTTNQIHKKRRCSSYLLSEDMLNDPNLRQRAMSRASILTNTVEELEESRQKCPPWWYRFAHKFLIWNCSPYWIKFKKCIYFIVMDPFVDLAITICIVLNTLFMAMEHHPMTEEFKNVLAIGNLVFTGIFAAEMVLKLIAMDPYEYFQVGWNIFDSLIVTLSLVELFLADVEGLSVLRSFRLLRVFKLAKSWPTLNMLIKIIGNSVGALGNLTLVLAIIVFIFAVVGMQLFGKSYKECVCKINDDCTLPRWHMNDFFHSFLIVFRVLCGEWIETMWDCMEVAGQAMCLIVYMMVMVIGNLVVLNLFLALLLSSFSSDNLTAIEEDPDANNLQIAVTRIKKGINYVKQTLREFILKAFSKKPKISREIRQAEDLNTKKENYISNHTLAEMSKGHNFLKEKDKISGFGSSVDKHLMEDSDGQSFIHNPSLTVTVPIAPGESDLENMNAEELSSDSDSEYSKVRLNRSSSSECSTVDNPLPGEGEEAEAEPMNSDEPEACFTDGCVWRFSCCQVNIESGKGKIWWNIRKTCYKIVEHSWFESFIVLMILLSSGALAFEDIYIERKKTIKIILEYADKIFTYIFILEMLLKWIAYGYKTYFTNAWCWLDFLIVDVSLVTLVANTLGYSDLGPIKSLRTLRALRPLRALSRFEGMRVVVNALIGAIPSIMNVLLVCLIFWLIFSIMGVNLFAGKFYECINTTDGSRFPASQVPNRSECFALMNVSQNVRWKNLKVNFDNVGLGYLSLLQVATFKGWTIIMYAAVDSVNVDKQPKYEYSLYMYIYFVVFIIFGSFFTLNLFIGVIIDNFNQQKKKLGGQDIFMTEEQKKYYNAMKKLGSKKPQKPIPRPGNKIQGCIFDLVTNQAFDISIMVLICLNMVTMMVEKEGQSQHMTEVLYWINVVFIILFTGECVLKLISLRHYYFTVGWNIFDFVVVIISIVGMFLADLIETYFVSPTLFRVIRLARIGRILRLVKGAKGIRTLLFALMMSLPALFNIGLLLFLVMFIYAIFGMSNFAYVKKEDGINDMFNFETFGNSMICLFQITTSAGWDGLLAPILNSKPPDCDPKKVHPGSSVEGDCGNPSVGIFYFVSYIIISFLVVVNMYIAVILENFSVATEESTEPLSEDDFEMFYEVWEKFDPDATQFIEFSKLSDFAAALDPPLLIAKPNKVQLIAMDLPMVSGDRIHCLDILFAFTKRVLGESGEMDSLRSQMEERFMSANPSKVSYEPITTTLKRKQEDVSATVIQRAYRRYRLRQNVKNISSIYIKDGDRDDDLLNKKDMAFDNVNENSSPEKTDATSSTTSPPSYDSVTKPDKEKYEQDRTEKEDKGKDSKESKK

SMILES | IC50 [1] [nM] | IC50 [3] [nM] | further results
Cn1nccc1-c1cc(Cl)ccc1Oc1ccc(S(=O)(=O)Nc2cnccn2)cc1C#N [Example 885, 4-[4-chloro-2-(1-methyl-1H-pyrazol-5-yl)phenoxy]-3-cyano-N-pyrazin-2-ylbenzenesulfonamide] | – | – | IC50 [2]: 6300 nM
CCOC(=O)Cn1nccc1-c1cc(F)ccc1Oc1ccc(S(=O)(=O)Nc2nccs2)cc1F [Example 221, ethyl 2-(5-(5-fluoro-2-(2-fluoro-4-(N-thiazol-2-ylsulfamoyl)phenoxy)phenyl)-1H-pyrazol-1-yl)acetate] | – | 450 | –
Cc1cc(Oc2ccc(S(=O)(=O)Nc3nccs3)cc2)n(-c2ccccc2)n1 [Example 277, 4-(5-methyl-2-phenyl-2H-pyrazol-3-yloxy)-N-thiazol-2-yl-benzenesulfonamide] | – | 1110 | –
N#Cc1cc(S(=O)(=O)Nc2cscn2)ccc1Oc1ccc(Cl)cc1-c1cn[nH]c1N [Example 393, 4-[2-(5-amino-1H-pyrazol-4-yl)-4-chlorophenoxy]-3-cyano-N-1,3-thiazol-4-ylbenzenesulfonamide] | 990 | – | –
O=S(=O)(Nc1ccc(F)cn1)c1cc(F)c(Oc2ccc(C(F)(F)F)cc2C2CCNCC2)cc1F [Example 666, 2,5-Difluoro-N-(5-fluoropyridin-2-yl)-4-[2-piperidin-4-yl-4-(trifluoromethyl)phenoxy]benzenesulfonamide] | 270 | – | –
N#Cc1cc(S(=O)(=O)Nc2ncns2)ccc1Oc1ccc(Cl)cc1-c1cccc(CN)c1 [Example 511, 4-{[3′-(aminomethyl)-5-chlorobiphenyl-2-yl]oxy}-3-cyano-N-1,2,4-thiadiazol-5-ylbenzenesulfonamide] | 8.4 | – | –
N#Cc1cc(S(=O)(=O)Nc2ncns2)ccc1Oc1ccc(I)cc1-c1cn[nH]c1 [Example 289, 3-cyano-4-[4-iodo-2-(1H-pyrazol-4-yl)phenoxy]-N-1,2,4-thiadiazol-5-ylbenzenesulfonamide] | 390 | – | –
O=S(=O)(Nc1nccs1)c1ccc(Oc2cccc(-c3ccccc3)c2)cc1F [Example 210, 4-(biphenyl-3-yloxy)-2-fluoro-N-(thiazol-2-yl)benzenesulfonamide] | – | 1370 | –
Cn1nccc1-c1cc(Cl)ccc1Oc1ccc(S(=O)(=O)Nc2ccc(C#N)cn2)cc1C#N [Example 466, 4-[4-chloro-2-(1-methyl-1H-pyrazol-5-yl)phenoxy]-3-cyano-N-(5-cyanopyridin-2-yl)benzenesulfonamide] | 36000 | – | –
O=S(=O)(Nc1nccs1)c1cc(F)c(Oc2ccc(Cl)cc2-c2cn[nH]c2)cc1F [Example 679, 4-[4-chloro-2-(1H-pyrazol-4-yl)phenoxy]-2,5-difluoro-N-1,3-thiazol-2-ylbenzenesulfonamide] | 31 | – | –
Cc1cccc(-c2cccc(F)c2)c1Oc1ccc(S(=O)(=O)Nc2ncns2)cc1C#N [Example 38, 3-cyano-4-[(3′-fluoro-3-methylbiphenyl-2-yl)oxy]-N-1,2,4-thiadiazol-5-ylbenzenesulfonamide] | – | 15500 | –
N#Cc1cc(S(=O)(=O)Nc2ncns2)ccc1Oc1cc(C(F)(F)F)ccc1-c1ccnnc1 [Example 940, 3-cyano-4-[2-pyridazin-4-yl-5-(trifluoromethyl)phenoxy]-N-1,2,4-thiadiazol-5-ylbenzenesulfonamide] | – | – | IC50 [2]: 31 nM
N#Cc1cc(S(=O)(=O)Nc2ncc(Br)s2)ccc1Oc1c(Br)cc(Br)cc1-c1ccccc1 [Example 512, N-(5-Bromo-1,3-thiazol-2-yl)-3-cyano-4-[(3,5-dibromobiphenyl-2-yl)oxy]benzenesulfonamide] | 3400 | – | –
Cn1ncnc1-c1cc(Cl)ccc1Oc1ccc(S(=O)(=O)Nc2ncc(F)s2)cc1F [Example 349, 4-[4-chloro-2-(1-methyl-1H-1,2,4-triazol-5-yl)phenoxy]-3-fluoro-N-(5-fluoro-1,3-thiazol-2-yl)benzenesulfonamide] | >1000 | – | –
CC(C)(C)NC(=O)c1cnn(-c2ccc(Oc3ccc(S(=O)(=O)Nc4nccs4)cc3C#N)cc2)c1 [Example 378, N-tert-butyl-1-(4-{2-cyano-4-[(1,3-thiazol-2-ylamino)sulfonyl]phenoxy}phenyl)-1H-pyrazole-4-carboxamide] | >1000 | – | –
O=C(c1cccc(-c2cc(Cl)ccc2Oc2cc(F)c(S(=O)(=O)Nc3ncns3)cc2Cl)c1)N1CC(O)C1 [Example 824, 5-chloro-4-({5-chloro-3′-[(3-hydroxyazetidin-1-yl)carbonyl]biphenyl-2-yl}oxy)-2-fluoro-N-1,2,4-thiadiazol-5-ylbenzenesulfonamide] | – | – | IC50 [2]: 4.7 nM
O=S(=O)(Nc1ncns1)c1ccc(Oc2ccn(Cc3ccc(Cl)cc3)n2)c(C(F)(F)F)c1 [Example 204, 4-{[1-(4-chlorobenzyl)-1H-pyrazol-3-yl]oxy}-N-1,2,4-thiadiazol-5-yl-3-(trifluoromethyl)benzenesulfonamide] | – | 3140 | –
Nc1cc(-c2cc(C(F)(F)F)ccc2Oc2ccc(S(=O)(=O)Nc3ccncn3)cc2Cl)ccn1 [Example 1013, 4-[2-(2-aminopyridin-4-yl)-4-(trifluoromethyl)phenoxy]-3-chloro-N-pyrimidin-4-ylbenzenesulfonamide] | – | – | IC50 [2]: 4.8 nM
N#Cc1cc(S(=O)(=O)Nc2ncns2)ccc1Oc1cnc(N)nc1-c1ccc(Cl)cc1 [Example 18, 4-{[2-amino-4-(4-chlorophenyl)pyrimidin-5-yl]oxy}-3-cyano-N-1,2,4-thiadiazol-5-ylbenzenesulfonamide] | – | >10000 | –
COc1cc(-c2ccccc2Oc2ccc(S(=O)(=O)Nc3ncns3)cc2C#N)ccc1C#N [Example 13, 3-cyano-4-[(4′-cyano-3′-methoxybiphenyl-2-yl)oxy]-N-1,2,4-thiadiazol-5-ylbenzenesulfonamide] | – | 170 | –
Cn1nccc1-c1cc(Cl)ccc1Oc1ccc(S(=O)(=O)Nc2ccncn2)cc1Cl [Example 668, 3-Chloro-4-[4-chloro-2-(1-methyl-1H-pyrazol-5-yl)phenoxy]-N-pyrimidin-4-ylbenzenesulfonamide] | 53 | – | –

More lines, main results first:

IC50 [1] [nM] | IC50 [3] [nM] | SMILES | further results
970 | – | Cn1nc(C(F)(F)F)cc1-c1cc(F)c(F)c(Oc2ccc(S(=O)(=O)Nc3nccs3)cc2C#N)c1 [Example 472, 3-cyano-4-{2,3-difluoro-5-[1-methyl-3-(trifluoromethyl)-1H-pyrazol-5-yl]phenoxy}-N-1,3-thiazol-2-ylbenzenesulfonamide] | –
– | 12500 | Cn1nccc1-c1cc(Cl)cc(Cl)c1Oc1ccc(S(=O)(=O)Nc2ncns2)cc1C#N [Example 71, 3-cyano-4-[2,4-dichloro-6-(1-methyl-1H-pyrazol-5-yl)phenoxy]-N-1,2,4-thiadiazol-5-ylbenzenesulfonamide] | –
1100 | – | Cn1nc(C(F)(F)F)cc1-c1cc(F)cc(Oc2ccc(S(=O)(=O)Nc3nccs3)cc2C#N)c1 [Example 653, 3-cyano-4-{3-fluoro-5-[1-methyl-3-(trifluoromethyl)-1H-pyrazol-5-yl]phenoxy}-N-1,3-thiazol-2-ylbenzenesulfonamide] | –
34000 | – | CCn1nc(C(F)(F)F)cc1-c1ccc(Oc2ccc(S(=O)(=O)Nc3ccc(C(F)(F)F)cn3)cc2C#N)cc1 [Example 340, 3-cyano-4-{4-[1-ethyl-3-(trifluoromethyl)-1H-pyrazol-5-yl]phenoxy}-N-[5-(trifluoromethyl)pyridin-2-yl]benzenesulfonamide] | –
– | 1230 | N#Cc1cc(S(=O)(=O)Nc2nccs2)ccc1Oc1cc(C2CC2)nn1-c1ccccc1F [Example 193, 3-cyano-4-[5-cyclopropyl-2-(2-fluoro-phenyl)-2H-pyrazol-3-yloxy]-N-thiazol-2-yl-benzenesulfonamide] | –
300 | – | N#Cc1cc(S(=O)(=O)Nc2nccs2)ccc1Oc1ccc(Cl)cc1-c1cncnc1 [Example 701, 4-(4-chloro-2-pyrimidin-5-ylphenoxy)-3-cyano-N-1,3-thiazol-2-ylbenzenesulfonamide] | –
69 | – | Cn1nccc1-c1cc(OC(F)(F)F)ccc1Oc1ccc(S(=O)(=O)Nc2nccs2)cc1F [Example 365, 3-fluoro-4-[2-(1-methyl-1H-pyrazol-5-yl)-4-(trifluoromethoxy)phenoxy]-N-1,3-thiazol-2-ylbenzenesulfonamide] | –
190 | – | CC(C)c1cc(-n2ccc(C(F)(F)F)n2)ccc1Oc1ccc(S(=O)(=O)Nc2nccs2)cc1C#N [Example 352, 3-cyano-4-{2-isopropyl-4-[3-(trifluoromethyl)-1H-pyrazol-1-yl]phenoxy}-N-1,3-thiazol-2-ylbenzenesulfonamide] | –
140 | – | Cn1nc(C(F)(F)F)cc1-c1cccc(Oc2ccc(S(=O)(=O)Nc3nccs3)cc2C#N)c1F [Example 527, 3-cyano-4-{2-fluoro-3-[1-methyl-3-(trifluoromethyl)-1H-pyrazol-5-yl]phenoxy}-N-1,3-thiazol-2-ylbenzenesulfonamide] | –
– | 3760 | O=S(=O)(Nc1nccs1)c1ccc(Oc2ccc(-c3cc(C(F)(F)F)n[nH]3)cc2)c(F)c1 [Example 246, 3-fluoro-N-(thiazol-2-yl)-4-(4-(3-(trifluoromethyl)-1H-pyrazol-5-yl)phenoxy)benzenesulfonamide] | –
>1000 | – | Cn1cc(-c2ccc(Oc3ccc(S(=O)(=O)Nc4nccs4)cc3C#N)cc2)c(N)n1 [Example 483, 4-[4-(3-amino-1-methyl-1H-pyrazol-4-yl)phenoxy]-3-cyano-N-1,3-thiazol-2-ylbenzenesulfonamide] | –
– | 80 | N#Cc1cc(S(=O)(=O)Nc2nccs2)ccc1Oc1ccc(F)cc1-c1ccc(F)cc1 [Example 152, 3-cyano-4-[(4′,5-difluorobiphenyl-2-yl)oxy]-N-1,3-thiazol-2-ylbenzenesulfonamide] | –
– | 9170 | CC(C)(C)n1ccc(-c2ccc(Oc3ccc(S(=O)(=O)Nc4nccs4)cc3C#N)c(F)c2)n1 [Example 184, 4-[4-(1-tert-butyl-1H-pyrazol-3-yl)-2-fluoro-phenoxy]-3-cyano-N-thiazol-2-yl-benzenesulfonamide] | –
490 | – | CCn1nc(C2CC2)cc1-c1ccc(Oc2ccc(S(=O)(=O)Nc3nccs3)cc2C#N)cc1 [Example 369, 3-cyano-4-[4-(3-cyclopropyl-1-ethyl-1H-pyrazol-5-yl)phenoxy]-N-1,3-thiazol-2-ylbenzenesulfonamid] | –

Reference: patent publication US8541588B2, “Sulfonamide derivatives” (Pfizer Limited, priority 2009, dated 2013)
